We go through twelve compounds from patent US8822517B2, “Arylosulfonamides for the treatment of CNS diseases” (Adamed SP. Z O.O., priority 2010, dated 2014).

Assay [1] addresses serotoninergic 5-HT2A receptor (Homo sapiens, UniProt P28223). In words: Binding assay 5-HT2A (h), [3H]ketanserin, HEK-293 cells. Details: expressed in transfected cells; host or cells: HEK-293 cells. As to conditions: read-out: 5-HT2A. In short, it runs like this: (§1)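 Radioligand displacement at 1×10^−6 M compound, with detection by scintillation counting. Nonspecific signal is measured using an excess of non-radioactive ligand.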

Assay [2] concerns the target T1, serotoninergic 5-HT1A receptor (Homo sapiens, UniProt P08908).
T1 sequence (P08908 1-422): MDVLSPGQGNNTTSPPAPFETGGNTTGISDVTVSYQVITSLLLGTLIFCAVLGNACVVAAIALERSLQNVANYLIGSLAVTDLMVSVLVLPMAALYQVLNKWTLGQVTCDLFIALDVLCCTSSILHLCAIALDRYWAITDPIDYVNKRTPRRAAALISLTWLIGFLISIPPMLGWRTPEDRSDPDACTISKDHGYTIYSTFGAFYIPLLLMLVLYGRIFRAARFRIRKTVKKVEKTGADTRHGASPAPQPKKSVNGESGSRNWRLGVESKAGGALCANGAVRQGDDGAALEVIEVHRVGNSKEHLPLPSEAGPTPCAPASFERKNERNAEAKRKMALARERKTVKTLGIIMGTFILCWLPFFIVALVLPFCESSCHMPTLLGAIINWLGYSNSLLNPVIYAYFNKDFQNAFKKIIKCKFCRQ
In words: Binding assay 5-HT1A (h), [3H]8-OH-DPAT, HEK-293 cells. As to conditions: read-out: 5-HT1A. Details: expressed in transfected cells; host or cells: HEK-293 cells. In short, it runs like this: as §1

The target in assay [3] is serotoninergic 5-HT7 receptor (Homo sapiens, UniProt P34969). In words: Binding assay 5-HT7 (h), [3H]LSD, CHO cells. Further details: expressed in transfected cells; host or cells: CHO cells. As to conditions: read-out: 5-HT7. In short, it runs like this:
as §1

Assay [4] relates to adrenergic α1 receptor. In words: Binding assay α1 (non-selective), [3H]prazosin, rat cerebral cortex. To be noted: percent inhibition of control specific binding; compounds tested at 1×10^−6 M. In short, it runs like this: as §1
Assay [5] has as its target dopaminergic D2 receptor (Homo sapiens, UniProt P14416). In words: Binding assay D2S (h), [3H]methyl-spiperone, HEK-293 cells. Further details: expressed in transfected cells; host or cells: HEK-293 cells. To be noted: read-out: D2 [%]. Put shortly: as §1
Assay [6] has as its target T2, serotonine transporter (SERT) receptor (Homo sapiens, UniProt P31645).
T2 construct: expressed in transfected cells; host or cells: CHO cells
In words: Binding assay SERT (h), [3H]imipramine, CHO cells. To be noted: read-out: SERT [%]. In short, it runs like this:
as §1

Assay [7] concerns the target serotoninergic 5-HT6 receptor (Homo sapiens, UniProt P50406). In words: Binding assay 5-HT6 (h), [3H]LSD, CHO cells. To be noted: read-out: 5-HT6. Details: expressed in transfected cells; host or cells: CHO cells. In short, it runs like this:
as §1

Assay [8] concerns the target dopaminergic D3 receptor (Homo sapiens, UniProt P35462). In words: Binding assay D3 (h), [3H]methyl-spiperone, CHO cells. Details: expressed in transfected cells; host or cells: CHO cells. To be noted: read-out: D3 [%]. Put shortly:
as §1

Sequence of dopaminergic D2 receptor (P14416 1-414 isoform P14416-2): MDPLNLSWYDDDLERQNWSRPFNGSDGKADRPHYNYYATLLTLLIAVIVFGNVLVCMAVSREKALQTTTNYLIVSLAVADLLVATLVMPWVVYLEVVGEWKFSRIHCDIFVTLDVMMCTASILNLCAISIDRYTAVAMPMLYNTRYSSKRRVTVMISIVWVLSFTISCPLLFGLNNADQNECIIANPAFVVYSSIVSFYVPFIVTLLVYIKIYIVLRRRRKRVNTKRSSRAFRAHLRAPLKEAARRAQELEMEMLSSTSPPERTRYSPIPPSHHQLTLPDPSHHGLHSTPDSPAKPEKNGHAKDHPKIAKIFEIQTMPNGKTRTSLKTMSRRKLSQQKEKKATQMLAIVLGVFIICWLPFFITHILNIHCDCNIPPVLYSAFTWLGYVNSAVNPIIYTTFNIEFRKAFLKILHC
Sequence of serotoninergic 5-HT7 receptor (P34969 whole entry): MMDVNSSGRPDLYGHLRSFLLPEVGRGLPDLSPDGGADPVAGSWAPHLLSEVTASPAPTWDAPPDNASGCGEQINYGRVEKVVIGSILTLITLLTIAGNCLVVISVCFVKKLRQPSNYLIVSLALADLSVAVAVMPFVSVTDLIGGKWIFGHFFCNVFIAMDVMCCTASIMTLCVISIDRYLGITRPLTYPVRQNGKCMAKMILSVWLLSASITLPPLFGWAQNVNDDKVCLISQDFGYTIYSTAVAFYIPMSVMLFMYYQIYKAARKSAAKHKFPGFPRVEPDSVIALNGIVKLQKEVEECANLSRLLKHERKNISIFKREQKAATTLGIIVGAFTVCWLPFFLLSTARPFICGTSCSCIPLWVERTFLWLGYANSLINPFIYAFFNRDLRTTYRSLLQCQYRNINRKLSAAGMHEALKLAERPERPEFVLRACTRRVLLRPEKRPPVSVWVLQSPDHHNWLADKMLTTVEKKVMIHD
Sequence of serotoninergic 5-HT6 receptor (P50406 whole entry): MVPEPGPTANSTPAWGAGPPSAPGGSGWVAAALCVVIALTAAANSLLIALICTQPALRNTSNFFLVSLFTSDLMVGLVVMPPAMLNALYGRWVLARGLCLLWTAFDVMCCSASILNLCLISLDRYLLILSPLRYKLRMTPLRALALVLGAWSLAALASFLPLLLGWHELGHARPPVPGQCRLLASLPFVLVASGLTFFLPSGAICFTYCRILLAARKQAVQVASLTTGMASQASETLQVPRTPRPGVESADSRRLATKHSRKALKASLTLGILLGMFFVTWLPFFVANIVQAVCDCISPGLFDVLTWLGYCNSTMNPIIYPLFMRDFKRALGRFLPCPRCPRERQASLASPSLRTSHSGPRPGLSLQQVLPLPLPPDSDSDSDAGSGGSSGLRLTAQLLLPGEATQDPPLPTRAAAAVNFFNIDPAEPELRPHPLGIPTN
Sequence of dopaminergic D3 receptor (P35462 whole entry): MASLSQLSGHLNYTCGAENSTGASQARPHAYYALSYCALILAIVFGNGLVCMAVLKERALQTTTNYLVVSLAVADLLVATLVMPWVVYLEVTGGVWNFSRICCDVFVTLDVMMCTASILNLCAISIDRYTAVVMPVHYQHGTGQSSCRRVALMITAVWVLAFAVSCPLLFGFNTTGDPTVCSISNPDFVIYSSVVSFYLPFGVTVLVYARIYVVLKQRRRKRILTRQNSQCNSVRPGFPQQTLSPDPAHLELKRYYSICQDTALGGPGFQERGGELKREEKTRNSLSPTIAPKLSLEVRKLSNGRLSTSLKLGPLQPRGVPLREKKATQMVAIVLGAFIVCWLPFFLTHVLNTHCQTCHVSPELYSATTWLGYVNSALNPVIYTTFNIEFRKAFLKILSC
Sequence of serotoninergic 5-HT2A receptor (P28223 whole entry): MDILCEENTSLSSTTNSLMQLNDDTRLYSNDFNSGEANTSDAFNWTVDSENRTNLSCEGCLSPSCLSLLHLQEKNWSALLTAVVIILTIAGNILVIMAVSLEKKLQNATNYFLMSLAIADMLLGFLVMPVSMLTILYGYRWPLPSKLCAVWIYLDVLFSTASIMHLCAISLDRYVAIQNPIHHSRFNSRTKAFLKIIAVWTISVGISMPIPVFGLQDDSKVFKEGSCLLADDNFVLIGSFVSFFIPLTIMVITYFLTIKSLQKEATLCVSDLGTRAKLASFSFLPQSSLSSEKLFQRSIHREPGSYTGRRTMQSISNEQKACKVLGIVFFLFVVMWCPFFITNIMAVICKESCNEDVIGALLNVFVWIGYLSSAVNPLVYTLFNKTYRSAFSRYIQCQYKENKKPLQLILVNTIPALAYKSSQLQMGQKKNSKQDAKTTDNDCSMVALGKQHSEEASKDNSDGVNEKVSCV
T2 sequence (P31645 whole entry): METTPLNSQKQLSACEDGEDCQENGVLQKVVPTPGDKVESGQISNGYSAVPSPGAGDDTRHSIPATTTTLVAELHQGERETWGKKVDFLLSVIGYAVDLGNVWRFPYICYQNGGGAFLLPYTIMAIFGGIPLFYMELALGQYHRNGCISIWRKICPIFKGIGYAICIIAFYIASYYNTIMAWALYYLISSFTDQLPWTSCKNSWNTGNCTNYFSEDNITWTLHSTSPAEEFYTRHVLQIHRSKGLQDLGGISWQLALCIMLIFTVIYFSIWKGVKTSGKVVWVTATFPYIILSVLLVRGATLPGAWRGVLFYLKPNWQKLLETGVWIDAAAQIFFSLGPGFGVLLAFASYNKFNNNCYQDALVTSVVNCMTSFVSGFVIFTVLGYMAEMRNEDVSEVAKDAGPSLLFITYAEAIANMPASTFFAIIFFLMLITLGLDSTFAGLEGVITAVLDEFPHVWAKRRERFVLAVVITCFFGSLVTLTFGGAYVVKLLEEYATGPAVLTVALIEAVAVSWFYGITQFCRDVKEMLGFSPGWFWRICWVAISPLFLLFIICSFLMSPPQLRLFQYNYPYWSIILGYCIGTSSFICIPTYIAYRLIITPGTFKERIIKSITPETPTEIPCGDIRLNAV

On to `Cn1ccc2c(S(=O)(=O)NCCCCN3CCC(c4noc5cc(F)ccc45)CC3)cccc21` [Compound 310, N-[4-[4-(6-Fluoro-1,2-benzoxazol-3-yl)piperidin-1-yl]butyl]-1-methyl-indole-4-sulphonamide], for which the inhibition at 1 µM came to 99% in assay [1]; 91% in assay [2]; 89% in assay [3]; 96% in assay [5]; 57% in assay [6]; 89% in assay [7]. Moreover, the inhibition at 1 µM in assay [8] is 97%. Moreover, the “α1 [%]” value in assay [4] amounted to 107%.

On to `CC(C)(C)c1ccc(S(=O)(=O)NCCCN2CCC(c3noc4cc(F)ccc34)CC2)cc1` [Compound 333, 4-tert-Butyl-N-[3-[4-(6-fluoro-1,2-benzoxazol-3-yl)piperidin-1-yl]propyl]benzenesulphonamide], for which the inhibition at 1 µM in assay [1] came to 99%; in assay [2], 42%; in assay [3], 92%; in assay [5] it was 92%; in assay [6], 5%; in assay [7], 93%. The inhibition at 1 µM in assay [8] is 89%. The “α1 [%]” value in assay [4] is given as 106%.

`Cc1[nH]c2ccc(Cl)cc2c1C1=CCN(CCCCNS(=O)(=O)c2cccc(F)c2)CC1` [Compound 139, N-[4-[4-(5-Chloro-2-methyl-1H-indol-3-yl)-3,6-dihydro-2H-pyridin-1-yl]butyl]-3-fluorobenzenesulphonamide]: the inhibition at 1 µM was determined as 41% in assay [1]; 57% in assay [2]; 56% in assay [3]; 52% in assay [5]; 17% in assay [6]; 96% in assay [7]. In assay [8], the inhibition at 1 µM amounted to 92%. The “α1 [%]” value in assay [4] was 20%.

Regarding `O=S(=O)(NCCCCN1CCN(c2cccc3c2OCCO3)CC1)c1csc2ccccc12` [Compound 400, N-[4-[4-(2,3-Dihydro-1,4-benzodioxin-5-yl)piperazin-1-yl]butyl]benzothiophene-3-sulphonamide], the inhibition at 1 µM turned out to be 66% in assay [1]; 100% in assay [2]; 95% in assay [3]; 83% in assay [5]; 30% in assay [6]; 9% in assay [7]. Moreover, in assay [8], the inhibition at 1 µM is 88%. In addition, the “α1 [%]” value in assay [4] stood at 94%.

As to `O=S(=O)(NCCCCN1CCC(c2noc3cc(F)ccc23)CC1)c1cccc(Br)c1` [Compound 109, 3-Bromo-N-[4-[4-(6-fluoro-1,2-benzoxazol-3-yl)piperidin-1-yl]butyl]benzenesulphonamide], the inhibition at 1 µM in assay [1] is 93%; in assay [2], 86%; in assay [3] it was 92%; in assay [5], 100%; in assay [6], 15%; in assay [7], 84%. In assay [8], the inhibition at 1 µM worked out at 99%. In assay [4], the “α1 [%]” value is given as 101%.

Regarding `O=S(=O)(NCCCCN1CCN(c2cccc3c2OCCO3)CC1)c1cc2ccc(Cl)cc2s1` [Compound 401, 6-Chloro-N-[4-[4-(2,3-dihydro-1,4-benzodioxin-5-yl)piperazin-1-yl]butyl]benzothiophene-2-sulphonamide], the inhibition at 1 µM was 79% in assay [1]; 103% in assay [2]; 91% in assay [3]; 84% in assay [5]; -8% in assay [6]; 27% in assay [7]. Moreover, the inhibition at 1 µM in assay [8] was 95%. Also, the “α1 [%]” value in assay [4] came to 90%.

For `COc1cccc(S(=O)(=O)NCCCCN2CCN(c3cccc4c3OCCO4)CC2)c1` [Compound 394, N-[4-[4-(2,3-Dihydro-1,4-benzodioxin-5-yl)piperazin-1-yl]butyl]-3-methoxybenzenesulphonamide], the inhibition at 1 µM came to 71% in assay [1]; 95% in assay [2]; 98% in assay [3]; 72% in assay [5]; 12% in assay [6]; 18% in assay [7]. In addition, the inhibition at 1 µM in assay [8] is 86%. In assay [4], the “α1 [%]” value came out at 92%.

Regarding `Cc1[nH]c2ccc(Cl)cc2c1C1=CCN(CCCCNS(=O)(=O)c2cccc3ccccc23)CC1` [Compound 366, N-[4-[4-(5-Chloro-2-methyl-1H-indol-3-yl)-3,6-dihydro-2H-pyridin-1-yl]butyl]-naphthalene-1-sulphonamide], the inhibition at 1 µM turned out to be 49% in assay [1]; 34% in assay [2]; 53% in assay [3]; 54% in assay [5]; 8% in assay [6]; 98% in assay [7]. Also, in assay [8], the inhibition at 1 µM worked out at 81%. For the same compound, in assay [4], the “α1 [%]” value is 8%.

Turning to `Cn1ccc2c(S(=O)(=O)NCCCN3CCC(c4noc5cc(F)ccc45)CC3)cccc21` [Compound 343, N-[3-[4-(6-Fluoro-1,2-benzoxazol-3-yl)piperidin-1-yl]propyl]-1-methyl-indole-4-sulphonamide], the inhibition at 1 µM in assay [1] worked out at 105%; in assay [2] it was 32%; in assay [3], 92%; in assay [5], 101%; in assay [6], 4%; in assay [7], 77%. Further, the inhibition at 1 µM in assay [8] came to 96%. In addition, the “α1 [%]” value in assay [4] is 86%.

As to `O=S(=O)(NCCCN1CCN(c2cccc3c2OCCO3)CC1)c1csc2ccccc12` [Compound 416, N-[3-[4-(2,3-Dihydro-1,4-benzodioxin-5-yl)piperazin-1-yl]propyl]benzothiophene-3-sulphonamide], the inhibition at 1 µM was 58% in assay [1]; 101% in assay [2]; 99% in assay [3]; 59% in assay [5]; -4% in assay [6]; 55% in assay [7]. In addition, in assay [8], the inhibition at 1 µM stood at 56%. The “α1 [%]” value in assay [4] is reported as 81%.

For the compound `O=S(=O)(NCCCN1CCN(c2nsc3ccccc23)CC1)c1cccc(F)c1` [Compound 72, N-[3-[4-(1,2-Benzothiazol-3-yl)piperazin-1-yl]propyl]-3-fluorobenzenesulphonamide], the inhibition at 1 µM turned out to be 94% in assay [1]; 95% in assay [2]; 101% in assay [3]; 99% in assay [5]; 44% in assay [6]; 78% in assay [7]. For the same compound, in assay [8], the inhibition at 1 µM worked out at 95%. The “α1 [%]” value in assay [4] was 93%.

For `O=S(=O)(NCCCCN1CCN(c2nsc3ccccc23)CC1)c1cccc(F)c1` [Compound 71, N-[4-[4-(1,2-Benzothiazol-3-yl)piperazin-1-yl]butyl]-3-fluorobenzenesulphonamide], the inhibition at 1 µM in assay [1] was found to be 94%; in assay [2], 89%; in assay [3], 99%; in assay [5] it was 103%; in assay [6] it was 41%; in assay [7], 76%. Also, the inhibition at 1 µM in assay [8] was found to be 91%. Besides, the “α1 [%]” value in assay [4] is listed as 99%.
